According to patent publication US20230159532A1, “PARATHYROID HORMONE (PTH) RECEPTOR ANTAGONISTS AND USES THEREOF” (Crinetics Pharmaceuticals, Inc., priority 2021, published 2023):

Target: T1, human PTHR1 receptor (Homo sapiens, UniProt Q03431)
T1 construct: purchased Eurofins HTS030M
T1 sequence (Q03431 27-593): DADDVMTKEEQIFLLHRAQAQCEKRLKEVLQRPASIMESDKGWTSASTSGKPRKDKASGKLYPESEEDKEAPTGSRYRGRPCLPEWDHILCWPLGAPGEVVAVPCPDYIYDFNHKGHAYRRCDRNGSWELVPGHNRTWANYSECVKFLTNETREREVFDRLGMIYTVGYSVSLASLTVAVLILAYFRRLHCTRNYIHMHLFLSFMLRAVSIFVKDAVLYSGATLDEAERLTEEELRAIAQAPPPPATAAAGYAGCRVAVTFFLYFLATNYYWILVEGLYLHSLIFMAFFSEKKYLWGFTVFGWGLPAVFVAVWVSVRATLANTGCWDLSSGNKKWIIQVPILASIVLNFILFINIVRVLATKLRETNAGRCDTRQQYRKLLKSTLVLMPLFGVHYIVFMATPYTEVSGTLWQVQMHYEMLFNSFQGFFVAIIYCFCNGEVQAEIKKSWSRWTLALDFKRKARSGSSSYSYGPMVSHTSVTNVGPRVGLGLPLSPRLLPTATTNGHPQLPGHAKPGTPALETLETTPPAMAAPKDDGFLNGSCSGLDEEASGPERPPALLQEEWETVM
Assay: Competitive antagonist binding assay for hPTH-R1 (radioactive competition binding, SPA beads)
Conditions: human PTHR1 membranes, [125I]-[Nle8,18,Tyr34]-PTH(1-34) 0.2 nM, 90 minutes at room temperature; read-out: hPTHR1 Ki
Procedure, shortened: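 Displacement of 0.2 nM radioiodinated [Nle8,18,Tyr34]-PTH(1-34) from membrane-bound human PTHR1 measured by scintillation proximity after 90 min at room temperature. Compounds typically 0-10,000 nM final, pH 7.4 HEPES/Mg/Ca buffer with BSA and detergent. Ki calculated from competition data.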

Row | SMILES | Ki [nM]
1 | CCN1C(=O)N(c2c(F)cc(NCCNC)cc2F)c2cc(C#N)cc(C)c2-c2cc(F)cnc21 [1-62, 10-(2,6-difluoro-4-{[2-(methylamino)ethyl]amino}phenyl)-8-ethyl-4-fluoro-15-methyl-9-oxo-6,8,10-triazatricyclo[9.4.0.0^2,7]pentadeca-1(11),2(7),3,5,12,14-hexaene-13-carbonitrile] | < 100
2 | CCN1C(=O)N(c2c(F)cc(NCCN)cc2F)c2cc(Cl)ccc2-c2cc(Cl)cnc21 [1-9, 10-{4-[(2-aminoethyl)amino]-2,6-difluorophenyl}-4,13-dichloro-8-ethyl-6,8,10-triazatricyclo[9.4.0.0^2,7]pentadeca-1(11),2(7),3,5,12,14-hexaen-9-one] | < 100
3 | CCN1C(=O)N(c2c(F)cc(NCCNCCO)cc2F)c2cc(Cl)ccc2-c2cc(C#N)cnc21 [1-90, 13-chloro-10-[2,6-difluoro-4-({2-[(2-hydroxyethyl)amino]ethyl}amino)phenyl]-8-ethyl-9-oxo-6,8,10-triazatricyclo[9.4.0.0^2,7]pentadeca-1(11),2(7),3,5,12,14-hexaene-4-carbonitrile] | < 100
4 | CC(C)N1C(=O)N(c2c(F)cc(NCCNCCO)cc2F)c2cc(C#N)ccc2-c2cc(F)cnc21 [1-85, 10-[2,6-difluoro-4-({2-[(2-hydroxyethyl)amino]ethyl}amino)phenyl]-4-fluoro-9-oxo-8-(propan-2-yl)-6,8,10-triazatricyclo[9.4.0.0^2,7]pentadeca-1(11),2(7),3,5,12,14-hexaene-13-carbonitrile] | < 100
5 | CCN1C(=O)N(c2c(F)cc(NCCNCCCC(=O)O)cc2F)c2cc(Cl)ccc2-c2cc(F)cnc21 [1-16, 4-({2-[(4-{13-chloro-8-ethyl-4-fluoro-9-oxo-6,8,10-triazatricyclo[9.4.0.0^2,7]pentadeca-1(11),2(7),3,5,12,14-hexaen-10-yl}-3,5-difluorophenyl)amino]ethyl}amino)butanoic acid] | < 100
6 | CCN1C(=O)N(c2c(F)cc(NC3CNC3)cc2F)c2cc(C#N)ccc2-c2cc(Cl)cnc21 [1-234, 10-{4-[(azetidin-3-yl)amino]-2,6-difluorophenyl}-4-chloro-8-ethyl-9-oxo-6,8,10-triazatricyclo[9.4.0.0^2,7]pentadeca-1(11),2(7),3,5,12,14-hexaene-13-carbonitrile] | < 100
7 | CNCCNc1cc(F)c(N2C(=O)N(C)c3ncc(F)cc3-c3c(C)cc(C#N)cc32)c(F)c1 [1-111, 10-(2,6-difluoro-4-{[2-(methylamino)ethyl]amino}phenyl)-4-fluoro-8,15-dimethyl-9-oxo-6,8,10-triazatricyclo[9.4.0.0^2,7]pentadeca-1(11),2(7),3,5,12,14-hexaene-13-carbonitrile] | < 100
8 | CCN1C(=O)N(c2c(F)cc(NCCN[C@@H]3CC[C@@H]3O)cc2F)c2cc(C#N)ccc2-c2cc(C(F)(F)F)cnc21 [1-184, 10-{2,6-difluoro-4-[(2-{[(1R,2S)-2-hydroxycyclobutyl]amino}ethyl)amino]phenyl}-8-ethyl-9-oxo-4-(trifluoromethyl)-6,8,10-triazatricyclo[9.4.0.0^2,7]pentadeca-1(11),2(7),3,5,12,14-hexaene-13-carbonitrile] | < 100
9 | CCN1C(=O)N(c2c(F)cc(NCCNC3CCOCC3)cc2F)c2cc(Cl)ccc2-c2cc(C)cnc21 [1-27, 13-chloro-10-[2,6-difluoro-4-({2-[(oxan-4-yl)amino]ethyl}amino)phenyl]-8-ethyl-4-methyl-6,8,10-triazatricyclo[9.4.0.0^2,7]pentadeca-1(11),2(7),3,5,12,14-hexaen-9-one] | < 100
10 | CCN1C(=O)N(c2ncc(NCCNC)cc2F)c2cc(Cl)ccc2-c2cc(Cl)cnc21 [2-11, 4,13-dichloro-8-ethyl-10-(3-fluoro-5-{[2-(methylamino)ethyl]amino}pyridin-2-yl)-6,8,10-triazatricyclo[9.4.0.0^2,7]pentadeca-1(11),2(7),3,5,12,14-hexaen-9-one] | < 100
11 | CCN1C(=O)N(c2c(F)cc(N3CC[C@H](NC)C3)cc2F)c2cc(C#N)ccc2-c2cc(Cl)cnc21 [1-235, 4-chloro-10-{2,6-difluoro-4-[(3S)-3-(methylamino)pyrrolidin-1-yl]phenyl}-8-ethyl-9-oxo-6,8,10-triazatricyclo[9.4.0.0^2,7]pentadeca-1(11),2(7),3,5,12,14-hexaene-13-carbonitrile] | < 100
12 | CCN1C(=O)N(c2c(F)cc(NCCNCCO)cc2F)c2cc(Cl)ccc2-c2nc(C#N)ccc21 [3-15, 13-chloro-10-[2,6-difluoro-4-({2-[(2-hydroxyethyl)amino]ethyl}amino)phenyl]-8-ethyl-9-oxo-3,8,10-triazatricyclo[9.4.0.0^2,7]pentadeca-1(11),2(7),3,5,12,14-hexaene-4-carbonitrile] | 1000 to 10000
13 | CCN1C(=O)N(c2c(F)cc(NCC3(CO)CNC3)cc2F)c2cc(C#N)ccc2-c2cc(Cl)cnc21 [1-158, 4-chloro-10-[2,6-difluoro-4-({[3-(hydroxymethyl)azetidin-3-yl]methyl}amino)phenyl]-8-ethyl-9-oxo-6,8,10-triazatricyclo[9.4.0.0^2,7]pentadeca-1(11),2(7),3,5,12,14-hexaene-13-carbonitrile] | 100 to 1000
14 | CCN1C(=O)N(c2c(F)cc(NCCNCC(=O)O)cc2F)c2cc(C#N)ccc2-c2cc(C(F)(F)F)cnc21 [1-227, 2-{[2-({4-[13-cyano-8-ethyl-9-oxo-4-(trifluoromethyl)-6,8,10-triazatricyclo[9.4.0.0^2,7]pentadeca-1(11),2(7),3,5,12,14-hexaen-10-yl]-3,5-difluorophenyl}amino)ethyl]amino}acetic acid] | < 100
15 | C[C@@H](CO)NCCNc1cc(F)c(N2C(=O)N(C)c3ncc(Cl)cc3-c3ccc(C#N)cc32)c(F)c1 [1-205, 4-chloro-10-{2,6-difluoro-4-[(2-{[(2S)-1-hydroxypropan-2-yl]amino}ethyl)amino]phenyl}-8-methyl-9-oxo-6,8,10-triazatricyclo[9.4.0.0^2,7]pentadeca-1(11),2(7),3,5,12,14-hexaene-13-carbonitrile] | < 100
16 | CCN1C(=O)N(c2c(F)cc(NCCNC[C@H](O)CO)cc2F)c2cc(C#N)ccc2-c2cc(Cl)cnc21 [1-171, 4-chloro-10-{4-[(2-{[(2S)-2,3-dihydroxypropyl]amino}ethyl)amino]-2,6-difluorophenyl}-8-ethyl-9-oxo-6,8,10-triazatricyclo[9.4.0.0^2,7]pentadeca-1(11),2(7),3,5,12,14-hexaene-13-carbonitrile] | < 100
17 | CCN1C(=O)N(c2c(F)cc(NCCNCCNC(N)=O)cc2F)c2cc(C#N)ccc2-c2cc(Cl)cnc21 [1-140, [2-({2-[(4-{4-chloro-13-cyano-8-ethyl-9-oxo-6,8,10-triazatricyclo[9.4.0.0^2,7]pentadeca-1(11),2(7),3,5,12,14-hexaen-10-yl}-3,5-difluorophenyl)amino]ethyl}amino)ethyl]urea] | < 100
18 | CCN1C(=O)N(c2c(F)cc(NCCNC)cc2F)c2cc(Cl)ccc2-c2c1ncc(Cl)c2C [3-5, 4,13-dichloro-10-(2,6-difluoro-4-{[2-(methylamino)ethyl]amino}phenyl)-8-ethyl-3-methyl-6,8,10-triazatricyclo[9.4.0.0^2,7]pentadeca-1(11),2(7),3,5,12,14-hexaen-9-one] | < 100
19 | CCN1C(=O)N(c2c(F)cc(NCCN[C@@H]3CC[C@@H]3O)cc2F)c2cc(C#N)ccc2-c2cc(F)cnc21 [1-204, 10-{2,6-difluoro-4-[(2-{[(1R,2S)-2-hydroxycyclobutyl]amino}ethyl)amino]phenyl}-8-ethyl-4-fluoro-9-oxo-6,8,10-triazatricyclo[9.4.0.0^2,7]pentadeca-1(11),2(7),3,5,12,14-hexaene-13-carbonitrile] | < 100
20 | CCN1C(=O)N(c2c(F)cc(NCCNCCO)cc2F)c2ccccc2-c2cc(Cl)cnc21 [1-142, 4-chloro-10-[2,6-difluoro-4-({2-[(2-hydroxyethyl)amino]ethyl}amino)phenyl]-8-ethyl-6,8,10-triazatricyclo[9.4.0.0^2,7]pentadeca-1(11),2(7),3,5,12,14-hexaen-9-one] | < 100
21 | CCN1C(=O)N(c2c(F)cc(NCCNCC#N)cc2F)c2cc(C#N)ccc2-c2cc(Cl)cnc21 [1-160, 4-chloro-10-[4-({2-[(cyanomethyl)amino]ethyl}amino)-2,6-difluorophenyl]-8-ethyl-9-oxo-6,8,10-triazatricyclo[9.4.0.0^2,7]pentadeca-1(11),2(7),3,5,12,14-hexaene-13-carbonitrile] | 100 to 1000
22 | CNCCNc1cc(F)c(N2C(=O)N(C(C)C)c3ncc(F)cc3-c3ccc(C#N)cc32)c(F)c1 [1-84, 10-(2,6-difluoro-4-{[2-(methylamino)ethyl]amino}phenyl)-4-fluoro-9-oxo-8-(propan-2-yl)-6,8,10-triazatricyclo[9.4.0.0^2,7]pentadeca-1(11),2(7),3,5,12,14-hexaene-13-carbonitrile] | < 100
